In patent US20210179543A1, “CALPAIN-2 SELECTIVE INHIBITOR COMPOUNDS FOR TREATMENT OF GLAUCOMA” (Western University of Health Sciences, priority 2018, published 2021):

Assays:
[1] = biological target: T1, human calpain-1 (Homo sapiens, UniProt P07384); assay: in vitro calpain assay with succinic-Leu-Tyr-AMC, calpain-1; type: biochemical; conditions: human calpain-1, succinic-Leu-Tyr-AMC
T1 sequence (P07384 1-714): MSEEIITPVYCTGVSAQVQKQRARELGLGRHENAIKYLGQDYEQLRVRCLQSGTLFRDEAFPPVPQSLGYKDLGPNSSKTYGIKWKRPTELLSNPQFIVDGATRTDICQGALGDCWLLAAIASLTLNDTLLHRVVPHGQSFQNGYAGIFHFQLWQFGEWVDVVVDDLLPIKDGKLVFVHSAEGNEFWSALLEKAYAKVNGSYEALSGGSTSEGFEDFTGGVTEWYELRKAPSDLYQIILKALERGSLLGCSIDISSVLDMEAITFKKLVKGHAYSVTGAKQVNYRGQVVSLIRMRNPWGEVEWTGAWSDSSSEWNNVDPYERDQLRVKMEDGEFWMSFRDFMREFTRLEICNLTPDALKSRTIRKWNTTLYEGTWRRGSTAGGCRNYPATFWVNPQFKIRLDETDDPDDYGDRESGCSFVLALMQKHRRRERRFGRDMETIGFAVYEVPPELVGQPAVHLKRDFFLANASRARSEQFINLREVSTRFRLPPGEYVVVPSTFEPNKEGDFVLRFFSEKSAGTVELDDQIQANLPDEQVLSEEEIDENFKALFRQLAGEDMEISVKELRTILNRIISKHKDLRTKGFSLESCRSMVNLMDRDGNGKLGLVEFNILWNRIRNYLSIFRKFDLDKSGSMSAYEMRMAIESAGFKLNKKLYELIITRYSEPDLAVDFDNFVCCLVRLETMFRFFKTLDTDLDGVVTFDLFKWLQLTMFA
T1 sequence (P04632 1-268 partner): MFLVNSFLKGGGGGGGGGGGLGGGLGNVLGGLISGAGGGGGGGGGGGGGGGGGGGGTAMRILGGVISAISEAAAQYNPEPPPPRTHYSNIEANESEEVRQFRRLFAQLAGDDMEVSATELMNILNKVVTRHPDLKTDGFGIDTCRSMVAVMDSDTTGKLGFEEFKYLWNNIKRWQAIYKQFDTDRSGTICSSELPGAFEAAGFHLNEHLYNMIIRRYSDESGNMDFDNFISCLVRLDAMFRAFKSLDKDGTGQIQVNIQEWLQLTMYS
Description: (§1) NA115A (Compound 15 (S above) was introduced at various concentrations into an in vitro mix comprising succinic-Leu-Tyr-AMC and human calpain-1 or calpain-2 (Sasaki et al, 1984), and the kinetics of the […] of fluorescence were determined for each of the calpains. The Kis of NA115, NA115A and NA115B for calpain-1 and calpain-2 are shown in Tables 1-2 below. The efficacy of NA115 against calpain-1 or calpain-2 appears to be only in NA115A.

[2] = biological target: T2, calpain-2 (Homo sapiens, UniProt P17655); assay: in vitro calpain assay with succinic-Leu-Tyr-AMC, calpain-2; type: biochemical; conditions: for IC50 / Ki: human calpain-2, succinic-Leu-Tyr-AMC
T2 sequence (P17655 1-700): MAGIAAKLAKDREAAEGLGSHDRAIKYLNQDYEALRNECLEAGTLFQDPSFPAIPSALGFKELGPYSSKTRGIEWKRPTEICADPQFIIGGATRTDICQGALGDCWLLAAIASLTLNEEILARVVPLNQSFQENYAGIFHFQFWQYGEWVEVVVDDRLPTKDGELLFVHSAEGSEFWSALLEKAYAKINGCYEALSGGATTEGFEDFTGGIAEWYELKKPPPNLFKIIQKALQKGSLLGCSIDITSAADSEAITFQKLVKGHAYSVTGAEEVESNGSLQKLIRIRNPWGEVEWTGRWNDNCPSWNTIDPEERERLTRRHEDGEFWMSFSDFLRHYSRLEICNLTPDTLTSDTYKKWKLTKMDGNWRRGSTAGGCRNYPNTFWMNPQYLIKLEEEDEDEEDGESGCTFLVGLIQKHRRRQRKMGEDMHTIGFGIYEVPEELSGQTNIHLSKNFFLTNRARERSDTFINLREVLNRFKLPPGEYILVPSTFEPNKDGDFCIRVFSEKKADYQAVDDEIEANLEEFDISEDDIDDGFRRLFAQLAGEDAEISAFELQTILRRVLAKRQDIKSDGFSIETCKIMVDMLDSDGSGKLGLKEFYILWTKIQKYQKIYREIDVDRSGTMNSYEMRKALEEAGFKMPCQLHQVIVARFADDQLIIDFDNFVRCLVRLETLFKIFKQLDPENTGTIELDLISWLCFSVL
T2 sequence (P04632 1-268 partner): T1 sequence (P04632 1-268 partner)
Description: as §1

[3] = biological target: T2, calpain-2; assay: IC50 on calpain-1 and calpain-2 activities (Wang et al., 2014), selectivity; type: biochemical
Description: These compounds can be calpain-2 selective inhibitors. […] IC50 values for NA115 on the activity of calpain-1 and calpain-2 activities were measured (Wang et al., 2014). […] The selectivity of NA117 was 24.1. [0016] Pharmaceutical compositions of the invention comprise NA115 and NA117, and a pharmaceutically acceptable excipient. Excipients used in pharmaceutical composition of the invention are safe and provide the appropriate delivery for the desired route of administration, of an effective amount of NA115 and NA117.

[4] = test system: calpain-2 activation in the retina; assay: acute glaucoma model (increased IOP), SBDP immunohistochemistry in retina; type: in vivo; conditions: mouse
Description: Immunohistochemistry for SBDP (green) in sections from a sham animal (surgery only), animal subjected to increased IOP and injected intraocularly with vehicle (10% DMSO in PBS, 1 μl; IOP)), increased IOP and injected with NA115 (40 μM, 100 μM, and 200 μM). Blue staining represents cell nuclear staining with the retinal ganglion cells on the upper layer.
For each image, mean fluorescence intensity (MFI) is analyzed in the inner plexiform layer (layer between the 2 cell body layers in FIG. 1). Three frozen sections (20 μm-thick), cut through the optic disc of each eye, were collected and stained with SBDP antibody. In each section, three images were captured under 60× objective of a confocal microscope (LSM-880). For each image, MFI (mean fluorescence intensities) in the IPL layer were measured in ImageJ and averaged. N=2 animals/group.
Same experimental procedure as in FIGS. 1-4. NA117 was injectedintraocularly at a concentration of 200 μM). One-way ANOVA followed by Bonferroni test. *p<0.05, **p<0.01. Results are means±SEM of 2 animals. Scale bar=20 microns.
(§2) The model of acute glaucoma previously reported in Wang et al. (2016) was used. In this model, intraocular pressure (IOP) was increased to 110 mm Hg for 1 h with the mouse under anesthesia. Two h later mice received an intraocular injection of various concentrations of a calpain-2 inhibitor and were returned to their home cages. […]

[5] = plasma stability in mouse plasma; type: in vitro ADME; conditions: mouse plasma; solubilized in 2-Hydroxypropyl)-beta-cyclodextrin or captisol, depending on the solvent
Description: Stability of NA115 was evaluated with NA115 solubilized in 2-Hydroxypropyl)-beta-cyclodextrin or in captisol.
Moreover, 1 mM of the NA115 in beta-cyclodextrin was diluted 5 times in freshly prepared mouse plasma (200 μM NA115 in plasma). The mixture was incubated at 37 degree. At indicated time point, 1 μl of the mixture was added to 99 ul of calpain assay solution containing 5 mM Ca2+, 200 μM Suc-Leu-Tyr-AMC substrate and 100 nM calpain-2. Hydrolysis rate was monitored in the plate reader. As a control, 1 μl of plasma alone was subjected to calpain assay and its hydrolysis rate was set as 100% of calpain activity.

[6] = test system: retinal ganglion cells; assay: acute glaucoma model (increased IOP), beta-III tubulin staining of retinal wholemounts; type: in vivo; conditions: mouse, 200 μM, 1 μl intraocular 2 h after IOP elevation, 3 days after increased IOP
Description: Immunohistochemistry is shown with staining in the peripheral area of retinal wholemounts, with anti-beta-III tubulin, a marker for retinal ganglion cells, 3 days after increased IOP in a sham animal, an animal subjected to increased IOP and injected with vehicle (10% DMSO in PBS, 1 μl; IOP)) and an animal subjected to increased IOP and injected with NA115 (200 μM). Scale bar=100 microns.
Vehicle (10% DMSO in PBS, 1 μl) or NA115 (200 μM, 1 μl) was injected 2 h after IOP elevation. Retinal whole mounts were prepared 3 days after the surgery. One-way ANOVA followed by Bonferroni test. ****p<0.0001, **p<0.01. N=8 for Sham. N=7 for IOP, IOP+NA115.
as §2, with “cages. They were sacrificed 4 h later for determination of calpain activity using immunohistochemistry to stain for the spectrin breakdown product (SBDP) selectively generated by calpain-mediated truncation of spectrin. Previous studies (Wang et al., 2016) have shown that, at this time-point calpain activity represents calpain-2 activity.” for “cages.”

[7] = epimerization in pig vitreous fluid, aliquots tested in the calpain-2 assay; type: in vitro ADME; conditions: 35° C.; for change of inhibitory effect in the calpain-2 assay after incubation: 2 μM, various periods of time
Description: NA115A or NA115B (2 μM) was incubated with pig vitreous fluid for various periods of time at 35° C. Aliquots were then tested in the calpain-2 assay. […] (FIGS. 9A-9D).

SMILES	IC50 [1]	Ki [1]	Ratio KiCalpain-1/KiCalpain-2 [2]	IC50 [2]	Ki [2]	selectivity for calpain-2, ratio of IC50 calpain-1/IC50 calpain-2 [3]	inhibition of calpain-2 activation (SBDP staining) in the retina following increased IOP ([4]; intraocular injection 40 μM, 100 μM, 200 μM, 2 h after IOP elevation, sacrificed 4 h later)	half-life at 200 μM [5]	protection of retinal ganglion cells (anti-beta-III tubulin positive cells) from increased IOP-induced cell death [6]	change of inhibitory effect in the calpain-2 assay after incubation [7]	epimerization [7]	inhibition of calpain activation (SBDP staining) following increased IOP ([4]; intraocular injection 200 μM)
CCC(NC(=O)[C@H](CC(C)C)NC(=O)CCc1ccccc1)C(=O)C(=O)NCc1cc(F)cc(OC)c1 (stereo partly drawn) [NA115, N-(3-fluoro-5-methoxybenzyl)-3-((S)-4-methyl-2-(3-phenylpropanamido)-pentanamido)-2-oxopentanamide]	750 nM	470 nM	4.5	170 nM	103 nM	31.7	dose-dependently inhibiting calpain-2 activation in the retina following increased IOP	9 to 15 h	protects against retinal ganglion from increased ocular pressure-induced cell death	–	–	–
CC[C@H](NC(=O)[C@H](CC(C)C)NC(=O)CCc1ccccc1)C(=O)C(=O)NCc1cc(F)cc(OC)c1 [NA115A]	331 nM	189 nM	1.5	196 nM	124 nM	–	–	–	–	rapid decrease in the inhibitory effect	rapid epimerization	–
CC[C@@H](NC(=O)[C@H](CC(C)C)NC(=O)CCc1ccccc1)C(=O)C(=O)NCc1cc(F)cc(OC)c1 [NA115B]	> 10000 nM	> 10000 nM	–	> 10000 nM	> 10000 nM	–	–	–	–	increased inhibitory effect	rapid epimerization	–
CCC(NC(=O)[C@H](CC(C)C)NC(=O)CCc1ccccc1)C(=O)C(=O)NCc1cccc(OC)c1 (stereo partly drawn) [NA117, N-(3-methoxybenzyl)-3-((S)-4-methyl-2-(3-phenylpropanamido)pentanamido)-2-oxopentanamide]	–	–	–	–	–	24.1	–	–	–	–	–	also inhibits calpain activation following increased IOP
